Laboratory results taken from PubChem BioAssay (NCI).
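A five-concentration, 48-hour dose response in 96-well plates underlies each endpoint, interpolated linearly between surrounding concentrations. GI50 = concentration required for 50% inhibition of growth. The concentration for full growth arrest is given as TGI.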

What was measured:
Assay in all cases: inhibition of tumour cell growth, NCI panel, 48 h
A498 renal = test system: A498 renal
A549 NSCLC = test system: A549 NSCLC
EKVX NSCLC = test system: EKVX NSCLC
HCC-2998 colon = test system: HCC-2998 colon
HCT-116 colon = test system: HCT-116 colon
OVCAR-4 ovarian = test system: OVCAR-4 ovarian
OVCAR-8 ovarian = test system: OVCAR-8 ovarian
RXF 393 renal = test system: RXF 393 renal
SK-MEL-28 melanoma = test system: SK-MEL-28 melanoma
SW-620 colon = test system: SW-620 colon

Row | Compound | GI50 (A498 renal) | TGI (A498 renal) | GI50 (A549 NSCLC) | TGI (A549 NSCLC) | GI50 (EKVX NSCLC) | TGI (EKVX NSCLC) | GI50 (HCC-2998 colon) | TGI (HCC-2998 colon) | GI50 (HCT-116 colon) | TGI (HCT-116 colon) | GI50 (OVCAR-4 ovarian) | TGI (OVCAR-4 ovarian) | GI50 (OVCAR-8 ovarian) | TGI (OVCAR-8 ovarian) | GI50 (RXF 393 renal) | TGI (RXF 393 renal) | GI50 (SK-MEL-28 melanoma) | TGI (SK-MEL-28 melanoma) | GI50 (SW-620 colon) | TGI (SW-620 colon)
1 | Cn1c2ccccc2c2c(-c3ccccc3)[n+]3ccncc3nc21 | > 100 µM | > 100 µM | > 100 µM | > 100 µM | 51.4 µM | > 100 µM | > 100 µM | > 100 µM | > 100 µM | > 100 µM | > 100 µM | > 100 µM | > 100 µM | > 100 µM | > 100 µM | > 100 µM | > 100 µM | > 100 µM | > 100 µM | > 100 µM
2 | CC[C@]1(O)C[C@@H]2CN(CCc3c([nH]c4ccccc34)[C@@](C(=O)OC)(c3cc4c(cc3OC)N(C)[C@H]3[C@@](O)(C(=O)OC)[C@H](OC(C)=O)[C@]5(CC)C=CCN6CC[C@]43[C@@H]65)C2)C1 | < 0.01 µM | < 0.01 µM | < 0.01 µM | > 100 µM | – | > 79 µM | < 0.01 µM | 7.74 µM | < 0.01 µM | 15 µM | – | > 100 µM | < 0.01 µM | > 100 µM | < 0.01 µM | 3.77 µM | 11.1 µM | 28 µM | < 0.01 µM | > 100 µM
3 | O=c1c2cc([N+](=O)[O-])ccc2sc2ccsc12 | – | > 100 µM | – | > 100 µM | – | > 100 µM | – | > 100 µM | – | > 100 µM | – | > 100 µM | – | > 100 µM | – | > 100 µM | – | > 100 µM | – | > 100 µM
4 | O=C(N/N=C/c1ccccc1O)c1ccccc1Nc1ccnc(C(F)(F)F)c1 | 18.1 µM | > 91.6 µM | 0.505 µM | > 30.9 µM | 0.302 µM | 67.2 µM | 0.388 µM | 24.7 µM | 0.414 µM | 20.9 µM | 0.271 µM | > 100 µM | 0.711 µM | > 37.4 µM | 1.05 µM | > 40.3 µM | 1.71 µM | > 88.1 µM | 2.04 µM | > 100 µM
5 | C=CC(=O)N1CC2(CCN(c3nc(OC4CCN(CCCOC)CC4)nc4c(OCC(F)(F)F)c(-c5c(C)ccc6[nH]ncc56)c(C5CC5)cc34)CC2)C1 | 15.4 µM | 29.5 µM | 3.45 µM | 17.6 µM | 4.33 µM | 16.9 µM | 2 µM | 4.64 µM | 1.95 µM | 4.17 µM | 4.54 µM | 18.5 µM | 3.26 µM | 17.4 µM | 1.8 µM | 3.73 µM | 1.75 µM | 3.37 µM | 1.82 µM | 3.59 µM
6 | Oc1ccc(NCc2nc3ccccc3[nH]2)cc1 | 14.7 µM | > 100 µM | 51.6 µM | > 100 µM | 46.2 µM | > 100 µM | 74.2 µM | > 100 µM | 41.8 µM | > 100 µM | 28.7 µM | > 100 µM | 26.8 µM | > 100 µM | 30.3 µM | > 100 µM | 38.4 µM | > 100 µM | > 100 µM | > 100 µM
7 | N#Cc1cc([N+](=O)[O-])ccc1NC(=O)C(=O)Nc1n[nH]c(N)n1 | – | > 100 µM | – | > 100 µM | – | > 100 µM | – | > 100 µM | – | > 100 µM | – | > 100 µM | – | > 100 µM | – | > 100 µM | – | > 100 µM | – | > 100 µM
8 | COc1ccc(/C=C/c2nccc3ccccc23)cc1OC | – | > 10 µM | – | > 10 µM | – | > 10 µM | – | > 10 µM | – | > 10 µM | – | > 10 µM | – | > 10 µM | – | > 10 µM | – | > 10 µM | – | > 10 µM
9 | CC(C)C(=O)NC(=S)Nc1ccc([N+](=O)[O-])cc1C#N | – | > 100 µM | – | > 100 µM | – | > 100 µM | – | > 100 µM | – | > 100 µM | – | > 100 µM | – | > 100 µM | – | > 100 µM | – | > 100 µM | – | > 100 µM
10 | OCc1c[nH]c2ccccc12 | 31.3 µM | > 100 µM | 20.8 µM | 57.9 µM | 15.5 µM | 63.3 µM | 20.2 µM | 41 µM | 17.2 µM | 31.9 µM | 33 µM | > 100 µM | 29.8 µM | > 100 µM | 18.2 µM | 43.8 µM | 23.5 µM | 50.1 µM | 17.9 µM | 36.8 µM
11 | CCOc1cc2c(Cl)ncnc2c(OCC)c1OCC | 6.48 µM | 19.1 µM | 24.6 µM | > 79.8 µM | 13.3 µM | 29.5 µM | 1.88 µM | 3.59 µM | 3.39 µM | 11.9 µM | 13 µM | 27.7 µM | 6.34 µM | 28.5 µM | 7.74 µM | 22.1 µM | 2.15 µM | 5.26 µM | 2.88 µM | 9.24 µM
12 | Cc1cc2c(cc1C)[n+](=O)c(C(=O)C/C(=N/NC(=O)CC#N)C(=O)Nc1ccccc1C(F)(F)F)c(C)n2[O-] | – | > 100 µM | – | > 100 µM | – | > 100 µM | – | > 100 µM | – | > 100 µM | – | > 100 µM | – | > 100 µM | – | > 100 µM | – | > 100 µM | – | > 100 µM
13 | O=C1CCC(=O)N2CCCCN12 | – | > 100 µM | – | > 100 µM | – | > 100 µM | – | > 100 µM | – | > 100 µM | – | > 100 µM | – | > 100 µM | – | > 100 µM | – | > 100 µM | – | > 100 µM
14 | Nc1nc(Cl)c2ncn(Cc3ccc(C45CC6CC(CC(C6)C4)C5)c(O)c3)c2n1 | 8.15 µM | 24.4 µM | 1.29 µM | 3.17 µM | 2.99 µM | 21.8 µM | 2.26 µM | 8.34 µM | 1.1 µM | 3.15 µM | 0.991 µM | 3.82 µM | 2.93 µM | 14.1 µM | 1.87 µM | 6.56 µM | 10.6 µM | 25.9 µM | 2.95 µM | 13.3 µM
15 | Cc1cccc(C)c1NC(=O)C(=O)C1C(=O)NC(=O)NC1=O | – | > 100 µM | – | > 100 µM | – | > 100 µM | – | > 100 µM | – | > 100 µM | – | > 100 µM | – | > 100 µM | – | > 100 µM | – | > 100 µM | – | > 100 µM
